Legend:
Type in all cases: in vivo
[1] = test system: green foxtail (Setaria viridis); experiment: Test A postemergence application, visual injury rating 0-100; conditions: 10 days
Procedure, shortened: (§1)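 Scale 0–100 (no effect to complete control), visual, versus untreated controls, read 10 days after application. Application: preemergence directed spray onto seeded loam–sand soil, or postemergence to young plants; formulation in non-phytotoxic solvent with surfactant.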

[2] = test system: ragweed (common ragweed, Ambrosia artemisiifolia); experiment: as above; conditions: 10 days
Procedure, shortened: as §1

[3] = test system: blackgrass (Alopecurus myosuroides); experiment: as above; conditions: 10 days
Procedure, shortened: as §1

corn (Zea mays) [4] = experiment: as above; conditions: 10 days
Procedure, shortened: as §1

[5] = test system: wheat (Triticum aestivum); experiment: as above; conditions: 10 days
Procedure, shortened: as §1

[6] = test system: ryegrass, Italian (italian ryegrass, Lolium multiflorum); experiment: as above; conditions: 10 days
Procedure, shortened: as §1

[7] = test system: palmer (palmer amaranth, palmer pigweed, Amaranthus palmeri); experiment: as above; conditions: 10 days
Procedure, shortened: as §1

[8] = test system: galium (catchweed bedstraw, Galium aparine); experiment: as above; conditions: 10 days
Procedure, shortened: as §1

[9] = test system: barnyardgrass (Echinochloa crus-galli); experiment: as above; conditions: 10 days
Procedure, shortened: as §1

kochia (Bassia scoparia) [10] = experiment: as above; conditions: 10 days
Procedure, shortened: as §1

[11] = test system: oat, wild (wild oat, Avena fatua); experiment: as above; conditions: 10 days
Procedure, shortened: as §1

[12] = test system: horseweed (Erigeron canadensis); experiment: as above; conditions: 10 days
Procedure, shortened: as §1

soybean (Glycine max) [13] = experiment: as above; conditions: 10 days
Procedure, shortened: as §1

[14] = test system: green foxtail (Setaria viridis); experiment: Test A preemergence soil spray, visual injury rating 0-100; conditions: 10 days, 0 = no effect, 100 = complete control
Procedure, shortened: as §1

[15] = test system: ragweed (common ragweed, Ambrosia artemisiifolia); experiment: as above; conditions: 10 days, 0 = no effect, 100 = complete control
Procedure, shortened: as §1

[16] = test system: blackgrass (Alopecurus myosuroides); experiment: as above; conditions: 10 days, 0 = no effect, 100 = complete control
Procedure, shortened: as §1

corn (Zea mays) [17] = experiment: as above; conditions: 10 days, 0 = no effect, 100 = complete control
Procedure, shortened: as §1

[18] = test system: wheat (Triticum aestivum); experiment: as above; conditions: 10 days, 0 = no effect, 100 = complete control
Procedure, shortened: as §1

[19] = test system: ryegrass, Italian (italian ryegrass, Lolium multiflorum); experiment: as above; conditions: 10 days, 0 = no effect, 100 = complete control
Procedure, shortened: as §1

[20] = test system: palmer (palmer amaranth, palmer pigweed, Amaranthus palmeri); experiment: as above; conditions: 10 days, 0 = no effect, 100 = complete control
Procedure, shortened: as §1

[21] = test system: barnyardgrass (Echinochloa crus-galli); experiment: as above; conditions: 10 days, 0 = no effect, 100 = complete control
Procedure, shortened: as §1

kochia (Bassia scoparia) [22] = experiment: as above; conditions: 10 days, 0 = no effect, 100 = complete control
Procedure, shortened: as §1

[23] = test system: oat, wild (wild oat, Avena fatua); experiment: as above; conditions: 10 days, 0 = no effect, 100 = complete control
Procedure, shortened: as §1

soybean (Glycine max) [24] = experiment: as above; conditions: 10 days, 0 = no effect, 100 = complete control
Procedure, shortened: as §1

[25] = test system: ducksalad (Heteranthera limosa); experiment: Test B flooded paddy test, visual plant response rating 0-100; conditions: 250 g ai/ha, Flood, applied to paddy water, evaluated after 13 days
Procedure, shortened: (§2)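 In this flooded assay, 2-leaf seedlings received compound through the water layer, kept at 3 cm over the soil. Plants were held 13 days in a greenhouse and then visually compared with control pots.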

rice (Oryza sativa) = experiment: as above; conditions: 250 g ai/ha, Flood, applied to paddy water, evaluated after 13 days
Procedure, shortened: as §2

[26] = test system: barnyardgrass (Echinochloa crusgalli); experiment: as above; conditions: 250 g ai/ha, Flood, applied to paddy water, evaluated after 13 days
Procedure, shortened: as §2

[27] = test system: sedge, umbrella (small-flower umbrella sedge, Cyperus difformis); experiment: as above; conditions: 250 g ai/ha, Flood, applied to paddy water, evaluated after 13 days
Procedure, shortened: as §2

[28] = 31 g ai/ha, postemergence, 0 = no effect, 100 = complete control
[29] = Postemergence, 125 g ai/ha, 0 is no effect, 100 is complete control

## CCOC(=O)C1C=CC(NC(=O)C2(C)CN(c3cc(F)cc(Cl)c3)C(=O)O2)C1 (stereo not shown) [Compound 3]
[1]; [28]
  Foxtail, Green plant response rating (0-100): 90
[1]; [29]
  Foxtail, Green plant response rating (0 to 100 scale): 90
[2]; [28]
  Ragweed plant response rating (0-100): 50
[2]; [29]
  Ragweed plant response rating (0 to 100 scale): 80
[3]; [28]
  Blackgrass plant response rating (0-100): 80
[3]; [29]
  Blackgrass plant response rating (0 to 100 scale): 90
Corn (Zea mays) [4]; [28]
  Corn plant response rating (0-100): 100
Corn (Zea mays) [4]; [29]
  Corn plant response rating (0 to 100 scale): 100
[5]; [28]
  Wheat plant response rating (0-100): 90
[5]; [29]
  Wheat plant response rating (0 to 100 scale): 90
[6]; [28]
  Ryegrass, Italian plant response rating (0-100): 80
[6]; [29]
  Ryegrass, Italian plant response rating (0 to 100 scale): 90
[7]; [28]
  Amaranth, Palmer plant response rating (0-100): 50
[7]; [29]
  Amaranth, Palmer / Pigweed, Palmer plant response rating (0 to 100 scale): 70
[8]; [28]
  Galium plant response rating (0-100): 80
[8]; [29]
  Galium plant response rating (0 to 100 scale): 90
[9]; [28]
  Barnyardgrass plant response rating (0-100): 100
[9]; [29]
  Barnyardgrass plant response rating (0 to 100 scale): 100
Kochia (Bassia scoparia) [10]; [28]
  Kochia plant response rating (0-100): 70
Kochia (Bassia scoparia) [10]; [29]
  Kochia plant response rating (0 to 100 scale): 70
[11]; [28]
  Oat, Wild plant response rating (0-100): 90
[11]; [29]
  Oat, Wild plant response rating (0 to 100 scale): 90
[12]; [28]
  Horseweed plant response rating (0-100): 50
[12]; [29]
  Horseweed plant response rating (0 to 100 scale): 80
Soybean (Glycine max) [13]; [28]
  Soybean plant response rating (0-100): 90
Soybean (Glycine max) [13]; [29]
  Soybean plant response rating (0 to 100 scale): 90
[14]; 31 g ai/ha
  Foxtail, Green plant response rating (0-100): 30
[14]; 125 g ai/ha
  Foxtail, Green plant response rating (0 to 100 scale): 100
[15]; 31 g ai/ha
  Ragweed plant response rating (0-100): 10
[15]; 125 g ai/ha
  Ragweed plant response rating (0 to 100 scale): 30
[16]; 31 g ai/ha
  Blackgrass plant response rating (0-100): 0
[16]; 125 g ai/ha
  Blackgrass plant response rating (0 to 100 scale): 70
Corn (Zea mays) [17]; 31 g ai/ha
  Corn plant response rating (0-100): 50
Corn (Zea mays) [17]; 125 g ai/ha
  Corn plant response rating (0 to 100 scale): 50
[18]; 31 g ai/ha
  Wheat plant response rating (0-100): 50
[18]; 125 g ai/ha
  Wheat plant response rating (0 to 100 scale): 90
[19]; 31 g ai/ha
  Ryegrass, Italian plant response rating (0-100): 50
[19]; 125 g ai/ha
  Ryegrass, Italian plant response rating (0 to 100 scale): 90
[20]; 31 g ai/ha
  Amaranth, Palmer plant response rating (0-100): 80
[20]; 125 g ai/ha
  Amaranth, Palmer plant response rating (0 to 100 scale): 100
[21]; 31 g ai/ha
  Barnyardgrass plant response rating (0-100): 90
[21]; 125 g ai/ha
  Barnyardgrass plant response rating (0 to 100 scale): 100
Kochia (Bassia scoparia) [22]; 31 g ai/ha
  Kochia plant response rating (0-100): 70
Kochia (Bassia scoparia) [22]; 125 g ai/ha
  Kochia plant response rating (0 to 100 scale): 100
[23]; 31 g ai/ha
  Oat, Wild plant response rating (0-100): 10
[23]; 125 g ai/ha
  Oat, Wild plant response rating (0 to 100 scale): 90
Soybean (Glycine max) [24]; 31 g ai/ha
  Soybean plant response rating (0-100): 20
Soybean (Glycine max) [24]; 125 g ai/ha
  Soybean plant response rating (0 to 100 scale): 80
[25]
  Plant response rating, Ducksalad (0 to 100 scale, 0 is no effect and 100 is complete control): 90
Rice (Oryza sativa)
  Plant response rating, Rice (0 to 100 scale, 0 is no effect and 100 is complete control): 70
[26]
  Plant response rating, Barnyardgrass (0 to 100 scale, 0 is no effect and 100 is complete control): 95
[27]
  Plant response rating, Sedge, Umbrella (0 to 100 scale, 0 is no effect and 100 is complete control): 100
